Key:
[1] = xn = mol fraction of the nth substance listed; details: 100 kPa, Liquid; for viscosity: Capillary tube (Ostwald / Ubbelohde) method; for mass density: Vibrating tube method
[2] = refractive index (Na D-line) (dimensionless); xn = mol fraction of the nth substance listed; details: 100 kPa, Liquid, Standard Abbe refractometry

C1CC[C@H]2CCCC[C@H]2C1 [cis-decahydronaphthalene] + CCCCCCCCCC
Details	mass density, [1] [kg/m3]	refractive index, [2]	viscosity, [1] [mPa·s]
293.15 K, x1 = 0.1006	744.89	–	1.006
293.15 K, x1 = 0.2055	759.79	–	1.09
293.15 K, x1 = 0.3009	773.95	–	1.197
293.15 K, x1 = 0.3965	788.64	–	1.366
293.15 K, x1 = 0.508	806.55	–	1.481
293.15 K, x1 = 0.6026	822.35	–	1.669
293.15 K, x1 = 0.7012	839.6	–	1.954
293.15 K, x1 = 0.7763	853.24	–	2.163
293.15 K, x1 = 0.8985	876.48	–	2.647
293.15 K, x1 = 1	896.85	–	3.355
298.15 K, x1 = 0.1006	741.18	1.415	0.933
298.15 K, x1 = 0.2055	756.08	1.421	1.015
298.15 K, x1 = 0.3009	770.21	1.427	1.107
298.15 K, x1 = 0.3965	784.9	1.4326	1.26
298.15 K, x1 = 0.508	802.83	1.4403	1.361
298.15 K, x1 = 0.6026	818.62	1.4464	1.53
298.15 K, x1 = 0.7012	835.86	1.4539	1.781
298.15 K, x1 = 0.7763	849.49	1.4594	1.964
298.15 K, x1 = 0.8985	872.71	1.4688	2.39
298.15 K, x1 = 1	893.06	1.4776	3.011
303.15 K, x1 = 0.1006	737.4	–	0.868
303.15 K, x1 = 0.2055	752.31	–	0.939
303.15 K, x1 = 0.3009	766.45	–	1.022
303.15 K, x1 = 0.3965	781.15	–	1.162
303.15 K, x1 = 0.508	799.07	–	1.255
303.15 K, x1 = 0.6026	814.86	–	1.406
303.15 K, x1 = 0.7012	832.1	–	1.633
303.15 K, x1 = 0.7763	845.72	–	1.792
303.15 K, x1 = 0.8985	868.93	–	2.168
303.15 K, x1 = 1	889.26	–	2.718
308.15 K, x1 = 0.1006	733.61	1.4109	0.812
308.15 K, x1 = 0.2055	748.53	1.4167	0.876
308.15 K, x1 = 0.3009	762.68	1.4227	0.95
308.15 K, x1 = 0.3965	777.38	1.4284	1.076
308.15 K, x1 = 0.508	795.31	1.4358	1.162
308.15 K, x1 = 0.6026	811.1	1.4422	1.298
308.15 K, x1 = 0.7012	828.33	1.4496	1.503
308.15 K, x1 = 0.7763	841.96	1.455	1.644
308.15 K, x1 = 0.8985	865.15	1.4647	1.979
308.15 K, x1 = 1	885.46	1.4736	2.47
313.15 K, x1 = 0.1006	729.8	–	0.76
313.15 K, x1 = 0.2055	744.74	–	0.82
313.15 K, x1 = 0.3009	758.9	–	0.887
313.15 K, x1 = 0.3965	773.6	–	0.996
313.15 K, x1 = 0.508	791.54	–	1.079
313.15 K, x1 = 0.6026	807.33	–	1.204
313.15 K, x1 = 0.7012	824.56	–	1.389
313.15 K, x1 = 0.7763	838.18	–	1.517
313.15 K, x1 = 0.8985	861.37	–	1.811
313.15 K, x1 = 1	881.65	–	2.252
318.15 K, x1 = 0.1006	725.99	1.4065	0.715
318.15 K, x1 = 0.2055	740.94	1.4127	0.771
318.15 K, x1 = 0.3009	755.1	1.4188	0.832
318.15 K, x1 = 0.3965	769.81	1.4251	0.924
318.15 K, x1 = 0.508	787.76	1.4319	1.007
318.15 K, x1 = 0.6026	803.55	1.4384	1.12
318.15 K, x1 = 0.7012	820.78	1.4456	1.286
318.15 K, x1 = 0.7763	834.4	1.4515	1.401
318.15 K, x1 = 0.8985	857.58	1.4611	1.666
318.15 K, x1 = 1	877.85	1.4696	2.063
323.15 K, x1 = 0.1006	722.16	–	0.674
323.15 K, x1 = 0.2055	737.12	–	0.725
323.15 K, x1 = 0.3009	751.29	–	0.781
323.15 K, x1 = 0.3965	766.01	–	0.859
323.15 K, x1 = 0.508	783.96	–	0.941
323.15 K, x1 = 0.6026	799.76	–	1.045
323.15 K, x1 = 0.7012	816.99	–	1.193
323.15 K, x1 = 0.7763	830.61	–	1.299
323.15 K, x1 = 0.8985	853.78	–	1.539
323.15 K, x1 = 1	874.05	–	1.898
